Data as given in patent US8871753B2, “Macrocyclic compounds and their use as kinase inhibitors” (Incyte Corporation, priority 2008, dated 2014).
Counter-ions that a name gives are not always drawn. Like-named read-outs stand apart in the source and are kept apart here.

Assays:
Format in all cases: biochemical
[1] = biological target: T1, Recombinant Human Anaplastic Lymphoma Kinase (Homo sapiens, UniProt Q9UM73); experiment: ALK HTRF kinase assay
T1 construct: purchased Invitrogen, Carlsbad, Calif
Text: Materials: Recombinant Human Anaplastic Lymphoma Kinase was purchased from Invitrogen, Carlsbad, Calif. Peptide substrate (Biotin-[…]-amide) was custom synthesized at EZBiolab, Westfield, Ind. Streptavidin conjugated SureLight-Allophycocyania and LANCE Eu-W1024 labeled anti-phosphotyrosine antibody were from Perkin-Elmer, Boston, Mass. Microplates were from Corning Inc., Acton, Mass. All other reagents were from Sigma, St. Louis, Mo.
Plates were read in Fusion α-FP instrument (Perkin-Elmer). […] Signal=Bottom+(Top−Bottom)/(1+10^((Log(IC50)−Log [I])*Hill Slope) Bottom and Top refer to the post and pre-transition baselines, respectively.

[2] = biological target: T2, human JAK2 (a.a. 828-1132) (Homo sapiens, UniProt O60674); experiment: In vitro JAK kinase assay (HTRF, phosphorylation of a biotinylated peptide), JAK2
T2 construct: JAK2 (a.a. 828-1132); His tag (N); made in house; host or cells: insect cells (baculovirus)
Outline: (§1)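 Kinase activity was measured as phosphorylation of a biotinylated peptide, with ATP at 90 μM for JAK1, 30 μM for JAK2 and 3 μM for JAK3. Reactions ran 1 hr at room temperature, were stopped with EDTA plus SA-APC and Eu-Py20, and were read by HTRF after 40 minutes of antibody binding.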

TYK2 = TYK2 (Homo sapiens, UniProt P29597); experiment: TYK2 kinase inhibition (Table A1); conditions: Table B1
[3] = biological target: T3, human JAK1 (a.a. 837-1142) (Homo sapiens, UniProt P23458); experiment: In vitro JAK kinase assay (HTRF, phosphorylation of a biotinylated peptide), JAK1; conditions: read-out: JAK1 IC50
T3 construct: human JAK1 (a.a. 837-1142); His tag (N); made in house; host or cells: insect cells (baculovirus)
Outline: as §1

[4] = biological target: T4, human JAK3 (a.a. 781-1124) (Homo sapiens, UniProt P52333); experiment: In vitro JAK kinase assay (HTRF, phosphorylation of a biotinylated peptide), JAK3
T4 construct: JAK3 (a.a. 781-1124); His tag (N); made in house; host or cells: insect cells (baculovirus)
Outline: as §1

[5] = Table B1, cells without percent sign
[6] = compound at 500 nM or 1 mM, 90 μM ATP
[7] = method AA1 (30 μM ATP) or AA2 (1000 μM ATP), not stated per value
[8] = method AA1 (3 μM ATP) or AA2 (1000 μM ATP), not stated per value
[9] = method AA1 (90 μM ATP) or AA2 (1000 μM ATP), not stated per value
[10] = compound at a concentration of 500 nM or 1 mM (not specified), cells shown as percentage

T4 sequence (P52333 781-1124): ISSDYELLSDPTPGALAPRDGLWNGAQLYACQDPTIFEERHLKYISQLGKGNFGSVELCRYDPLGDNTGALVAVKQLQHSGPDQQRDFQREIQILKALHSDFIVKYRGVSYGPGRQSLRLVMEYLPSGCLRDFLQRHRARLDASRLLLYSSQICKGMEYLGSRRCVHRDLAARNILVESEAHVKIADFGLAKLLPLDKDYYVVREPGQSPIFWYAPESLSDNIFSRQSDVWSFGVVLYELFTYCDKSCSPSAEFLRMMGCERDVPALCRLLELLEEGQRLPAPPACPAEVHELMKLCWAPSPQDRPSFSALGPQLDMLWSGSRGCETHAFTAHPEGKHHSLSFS
T1 sequence (Q9UM73 19-1620): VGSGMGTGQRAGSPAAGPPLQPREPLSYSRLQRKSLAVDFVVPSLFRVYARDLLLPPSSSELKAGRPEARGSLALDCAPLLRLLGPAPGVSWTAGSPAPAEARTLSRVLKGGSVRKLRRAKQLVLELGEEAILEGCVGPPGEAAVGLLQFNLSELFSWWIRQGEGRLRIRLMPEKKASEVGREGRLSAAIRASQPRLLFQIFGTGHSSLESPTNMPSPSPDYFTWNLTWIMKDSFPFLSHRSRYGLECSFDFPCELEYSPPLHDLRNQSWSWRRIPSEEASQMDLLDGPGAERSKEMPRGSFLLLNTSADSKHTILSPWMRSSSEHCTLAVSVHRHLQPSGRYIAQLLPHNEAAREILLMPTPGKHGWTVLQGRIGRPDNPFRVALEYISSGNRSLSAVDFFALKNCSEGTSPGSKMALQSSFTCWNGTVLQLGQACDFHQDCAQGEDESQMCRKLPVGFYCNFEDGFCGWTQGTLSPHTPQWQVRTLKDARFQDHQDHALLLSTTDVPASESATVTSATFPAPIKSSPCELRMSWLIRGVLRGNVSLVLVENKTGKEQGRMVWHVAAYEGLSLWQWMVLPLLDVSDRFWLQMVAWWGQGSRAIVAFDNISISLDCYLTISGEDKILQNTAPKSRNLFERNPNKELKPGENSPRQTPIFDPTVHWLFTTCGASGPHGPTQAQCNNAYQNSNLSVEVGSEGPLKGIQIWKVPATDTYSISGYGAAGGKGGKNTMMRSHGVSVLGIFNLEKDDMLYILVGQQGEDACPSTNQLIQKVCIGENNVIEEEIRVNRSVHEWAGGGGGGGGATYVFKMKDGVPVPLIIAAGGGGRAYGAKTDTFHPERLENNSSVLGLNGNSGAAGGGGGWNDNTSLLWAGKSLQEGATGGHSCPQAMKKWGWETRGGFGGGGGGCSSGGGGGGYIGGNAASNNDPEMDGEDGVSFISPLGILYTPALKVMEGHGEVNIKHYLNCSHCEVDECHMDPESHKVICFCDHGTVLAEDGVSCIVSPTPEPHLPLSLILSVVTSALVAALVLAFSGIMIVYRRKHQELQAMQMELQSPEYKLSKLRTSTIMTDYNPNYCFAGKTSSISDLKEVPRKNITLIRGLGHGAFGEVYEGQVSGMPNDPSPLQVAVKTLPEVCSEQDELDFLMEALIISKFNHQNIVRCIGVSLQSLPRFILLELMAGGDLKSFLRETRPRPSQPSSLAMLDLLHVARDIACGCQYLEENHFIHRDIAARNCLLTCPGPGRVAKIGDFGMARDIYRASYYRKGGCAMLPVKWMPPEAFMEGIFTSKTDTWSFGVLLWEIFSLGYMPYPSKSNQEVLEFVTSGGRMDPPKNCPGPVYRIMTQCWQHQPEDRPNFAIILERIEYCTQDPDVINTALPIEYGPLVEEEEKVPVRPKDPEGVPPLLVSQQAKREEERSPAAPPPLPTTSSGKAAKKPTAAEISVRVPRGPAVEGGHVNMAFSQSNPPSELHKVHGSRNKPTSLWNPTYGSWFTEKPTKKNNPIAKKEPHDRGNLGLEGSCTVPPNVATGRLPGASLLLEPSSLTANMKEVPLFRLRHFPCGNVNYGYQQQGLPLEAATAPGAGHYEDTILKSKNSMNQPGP
T2 sequence (O60674 828-1132): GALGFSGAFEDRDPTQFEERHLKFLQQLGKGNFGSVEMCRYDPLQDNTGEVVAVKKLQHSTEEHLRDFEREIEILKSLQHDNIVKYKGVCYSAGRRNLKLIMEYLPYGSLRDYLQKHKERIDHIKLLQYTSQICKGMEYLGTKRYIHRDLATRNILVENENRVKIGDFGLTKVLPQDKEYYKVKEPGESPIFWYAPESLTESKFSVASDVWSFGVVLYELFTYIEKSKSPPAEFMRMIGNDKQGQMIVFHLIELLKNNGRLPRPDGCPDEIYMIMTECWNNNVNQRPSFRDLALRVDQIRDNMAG
T3 sequence (P23458 849-1154): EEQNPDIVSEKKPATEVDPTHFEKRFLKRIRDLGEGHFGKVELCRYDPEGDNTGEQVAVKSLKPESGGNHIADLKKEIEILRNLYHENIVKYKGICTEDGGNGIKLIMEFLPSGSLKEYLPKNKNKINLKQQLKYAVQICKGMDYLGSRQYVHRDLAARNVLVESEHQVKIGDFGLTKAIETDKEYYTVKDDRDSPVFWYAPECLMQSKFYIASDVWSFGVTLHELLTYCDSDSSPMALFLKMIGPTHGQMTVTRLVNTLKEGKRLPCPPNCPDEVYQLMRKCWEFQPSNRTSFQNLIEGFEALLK
Chain of TYK2 (P29597 whole entry): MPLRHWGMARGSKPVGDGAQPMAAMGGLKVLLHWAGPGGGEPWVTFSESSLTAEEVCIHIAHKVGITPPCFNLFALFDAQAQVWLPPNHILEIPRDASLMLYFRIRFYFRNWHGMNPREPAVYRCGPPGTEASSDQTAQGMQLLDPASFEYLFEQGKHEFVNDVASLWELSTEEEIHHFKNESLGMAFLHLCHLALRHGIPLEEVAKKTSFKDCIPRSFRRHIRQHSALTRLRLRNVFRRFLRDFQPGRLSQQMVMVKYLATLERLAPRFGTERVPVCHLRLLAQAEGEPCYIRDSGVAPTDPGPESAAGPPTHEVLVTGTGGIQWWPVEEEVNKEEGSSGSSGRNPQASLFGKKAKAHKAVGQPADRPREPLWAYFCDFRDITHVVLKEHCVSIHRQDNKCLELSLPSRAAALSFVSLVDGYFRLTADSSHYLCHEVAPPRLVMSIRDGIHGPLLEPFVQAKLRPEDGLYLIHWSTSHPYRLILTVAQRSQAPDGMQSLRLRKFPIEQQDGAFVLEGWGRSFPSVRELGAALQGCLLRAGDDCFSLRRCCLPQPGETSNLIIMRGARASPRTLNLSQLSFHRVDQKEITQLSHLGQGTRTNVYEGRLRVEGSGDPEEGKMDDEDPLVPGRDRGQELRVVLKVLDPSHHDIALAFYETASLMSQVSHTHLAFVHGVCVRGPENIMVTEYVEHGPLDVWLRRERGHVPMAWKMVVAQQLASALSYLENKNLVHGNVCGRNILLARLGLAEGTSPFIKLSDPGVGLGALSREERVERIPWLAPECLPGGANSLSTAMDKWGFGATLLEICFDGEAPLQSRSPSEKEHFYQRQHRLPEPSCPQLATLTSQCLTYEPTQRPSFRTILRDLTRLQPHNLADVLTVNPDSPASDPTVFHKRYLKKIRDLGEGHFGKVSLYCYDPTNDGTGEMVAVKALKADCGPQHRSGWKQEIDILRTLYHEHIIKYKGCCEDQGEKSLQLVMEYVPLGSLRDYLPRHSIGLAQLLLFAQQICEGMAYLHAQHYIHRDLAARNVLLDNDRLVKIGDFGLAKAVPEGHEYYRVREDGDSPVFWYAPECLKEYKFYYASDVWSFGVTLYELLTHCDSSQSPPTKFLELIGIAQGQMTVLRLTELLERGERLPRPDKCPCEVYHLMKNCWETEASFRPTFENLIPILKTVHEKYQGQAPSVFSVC

| SMILES | IC50 ([2]; Table B1) [nM] | IC50 (TYK2) [nM] | IC50 ([3]; Table B1) [nM] | IC50 [2, 7] [nM] | IC50 [3, 9] [nM] | ALK % of inhibition at a concentration of 500 nM or 1 mM [1, 10] [%] | further results |
| --- | --- | --- | --- | --- | --- | --- | --- |
| CC(C)(C)OC(=O)N1CCN(C(=O)COc2ccc3cc2CCc2cccc(c2)Nc2ncc(Cl)c(n2)N3)CC1 [Example A17, tert-Butyl 4-({[6-chloro-2,4,8,22-tetraazatetracyclo[14.3.1.1(3,7).1(9,13)]docosa-1(20),3(22),4,6,9(21),10,12,16,18-nonaen-12-yl]oxy}acetyl)piperazine-1-carboxylate trifluoroacetate] | – | – | – | 87 | 85 | – | ALK % of inhibition at a concentration of 500 nM or 1 mM [1, 6]: 7%; IC50 [4, 8]: 217 nM |
| Clc1cnc2nc1Nc1cccc(c1)NCc1cccc(c1)N2 [Example D16, 6-Chloro-2,4,8,14,22-pentaazatetracyclo[14.3.1.1(3,7).1(9,13)]docosa-1(20),3(22),4,6,9(21),10,12,16,18-nonaene bis(trifluoroacetate)] | – | – | – | – | – | – | IC50 ([1]; Table D1, 90 μM ATP): > 10000 nM; IC50 ([2]; Table D1): 113 nM; IC50 ([4]; Table D1): 325 nM; IC50 ([3]; Table D1): 144 nM |
| Cc1noc(C)c1NC(=O)N1CCC(CC(=O)Nc2ccc3cc2CCc2cncc(c2)Nc2ncc(Cl)c(n2)N3)CC1 [Example A19, bis(trifluoroacetate)] | – | – | – | 54 | 17 | – | ALK % of inhibition at a concentration of 500 nM or 1 mM ([1]; compound at 500 nM or 1 mM, 90 μM ATP, bis(trifluoroacetate)): 17%; IC50 [4, 8]: > 100 nM |
| Nc1nonc1C(=O)N1CCC(CC(=O)Nc2ccc3cc2CCc2cncc(c2)Nc2ncc(Cl)c(n2)N3)CC1 [Example A167, 2-{1-[(4-Amino-1,2,5-oxadiazol-3-yl)carbonyl]piperidin-4-yl}-N-[6-chloro-2,4,8,18,22-pentaazatetracyclo[14.3.1.1(3,7).1(9,13)]docosa-1(20),3(22),4,6,9(21),10,12,16,18-nonaen-12-yl]acetamide tris(trifluoroacetate)] | – | – | – | 59 | 0.6 | – | ALK % of inhibition at a concentration of 500 nM or 1 mM [1, 6]: 33% |
| Cn1ccnc1C(=O)N1CCC(CC(=O)Nc2ccc3cc2CCc2cncc(c2)Nc2ncc(Cl)c(n2)N3)CC1 [Example A164, N-[6-Chloro-2,4,8,18,22-pentaazatetracyclo[14.3.1.1(3,7).1(9,13)]docosa-1(20),3(22),4,6,9(21),10,12,16,18-nonaen-12-yl]-2-{1-[(1-methyl-1H-imidazol-2-yl)carbonyl]piperidin-4-yl}acetamide bis(trifluoroacetate)] | – | – | – | 175 | 5.3 | – | ALK % of inhibition at a concentration of 500 nM or 1 mM [1, 6]: 14% |
| Cc1occc1C(=O)N1CCC(CC(=O)Nc2ccc3cc2CCc2cncc(c2)Nc2ncc(Cl)c(n2)N3)CC1 [Example A160, N-[6-Chloro-2,4,8,18,22-pentaazatetracyclo[14.3.1.1(3,7).1(9,13)]docosa-1(20),3(22),4,6,9(21),10,12,16,18-nonaen-12-yl]-2-[1-(2-methyl-3-furoyl)piperidin-4-yl]acetamide bis(trifluoroacetate)] | – | – | – | 271 | 5 | – | ALK % of inhibition at a concentration of 500 nM or 1 mM [1, 6]: 19% |
| O=S1(=O)Cc2cccc(c2)Nc2nc(ncc2Cl)Nc2cccc(c2)N1 [Example C8, 6-Chloro-15-thia-2,4,8,16,23-pentaazatetracyclo[15.3.1.1(3,7).1(9,13)]tricosa-1(21),3(23),4,6,9(22),10,12,17,19-nonaene 15,15-dioxide trifluoroacetate] | – | – | – | – | – | – | IC50 [1]: > 1000 nM; IC50 [2]: 66 nM; IC50 [4]: 242 nM |

Further lines, with some results ahead:

| IC50 ([2]; Table B1) [nM] | IC50 (TYK2) [nM] | IC50 ([3]; Table B1) [nM] | IC50 [2, 7] [nM] | IC50 [3, 9] [nM] | ALK % of inhibition at a concentration of 500 nM or 1 mM [1, 10] [%] | SMILES | further results |
| --- | --- | --- | --- | --- | --- | --- | --- |
| 25 | 900 | 164 | – | – | – | Clc1nccc(N2CCN(Cc3cc4cc(c3)Nc3nc(ncc3Cl)Nc3cccc(c3)CC4)CC2)n1 [Example B218, 6-Chloro-11-{[4-(2-chloropyrimidin-4-yl)piperazin-1-yl]methyl}-2,4,8,22-tetraazatetracyclo[14.3.1.1(3,7).1(9,13)]docosa-1(20),3(22),4,6,9(21),10,12,16,18-nonaene tris(trifluoroacetate)] | IC50 [1, 5]: > 10000 nM |
| 601 | 25 | 17 | – | – | 22 | Cc1oncc1C(=O)N1CC[C@H](NC(=O)Nc2ccc3cc2CCc2cncc(c2)Nc2ncc(Cl)c(n2)N3)C1 [Example B266, N-[6-Chloro-2,4,8,18,22-pentaazatetracyclo[14.3.1.1(3,7).1(9,13)]docosa-1(20),3(22),4,6,9(21),10,12,16,18-nonaen-12-yl]-N′-{(3S)-1-[(5-methylisoxazol-4-yl)carbonyl]pyrrolidin-3-yl}urea bis(trifluoroacetate)] | – |
| 8.2 | 9.6 | 4 | – | – | 21 | CC(=O)NCCNC(=O)Nc1ccc2cc1CCc1cccc(c1)Nc1ncc(Cl)c(n1)N2 [Example B186, N-{2-[({[6-Chloro-2,4,8,22-tetraazatetracyclo[14.3.1.1(3,7).1(9,13)]docosa-1(20),3(22),4,6,9(21),10,12,16,18-nonaen-12-yl]amino}carbonyl)amino]ethyl}acetamide trifluoroacetate] | – |
| 47 | 950 | 55 | – | – | – | Clc1cnc2nc1Nc1cc(cc(CN3CCN(Cc4ccc(Oc5ncccn5)cc4)CC3)c1)CCc1cccc(c1)N2 [Example B193, 6-Chloro-11-({4-[4-(pyrimidin-2-yloxy)benzyl]piperazin-1-yl}methyl)-2,4,8,22-tetraazatetracyclo[14.3.1.1(3,7).1(9,13)]docosa-1(20),3(22),4,6,9(21),10,12,16,18-nonaene tris(trifluoroacetate)] | IC50 [1, 5]: > 1000 nM |
| 97 | 450 | 91 | – | – | 3.5 | CC(C)(C)OC(=O)N1CCC(NC(=O)Nc2ccc3cc2CCc2cccc(c2)Nc2ncc(Cl)c(n2)N3)CC1 [Example B180, tert-Butyl 4-[({[6-chloro-2,4,8,22-tetraazatetracyclo[14.3.1.1(3,7).1(9,13)]docosa-1(20),3(22),4,6,9(21),10,12,16,18-nonaen-12-yl]amino}carbonyl)amino]piperidine-1-carboxylate] | – |
| > 1000 | – | > 1000 | – | – | 0 | NC1CCN(c2ccnc(Nc3ccc4cc3CCc3cncc(c3)Nc3ncc(Cl)c(n3)N4)n2)CC1 [Example B282, N-[4-(4-Aminopiperidin-1-yl)pyrimidin-2-yl]-6-chloro-2,4,8,18,22-pentaazatetracyclo[14.3.1.1(3,7).1(9,13)]docosa-1(20),3(22),4,6,9(21),10,12,16,18-nonaen-12-amine tetrakis(trifluoroacetate)] | – |
| 8.4 | 8.1 | 8 | – | – | 4.6 | O=S(=O)(Nc1ccc2cc1CCc1cccc(c1)Nc1ncc(Cl)c(n1)N2)c1ccccc1C(F)(F)F [Example B164, N-[6-Chloro-2,4,8,22-tetraazatetracyclo[14.3.1.1(3,7).1(9,13)]docosa-1(20), 3(22),4,6,9(21),10,12,16,18-nonaen-12-yl]-2-(trifluoromethyl)benzenesulfonamide trifluoroacetate] | – |
| 125 | 700 | 176 | – | – | – | Cn1ccc(C(=O)Nc2cc3cc(c2)Nc2nc(ncc2Cl)Nc2cccc(c2)CC3)n1 [Example B207, N-[6-Chloro-2,4,8,22-tetraazatetracyclo[14.3.1.1(3,7).1(9,13)]docosa-1(20),3(22),4,6,9(21),10,12,16,18-nonaen-11-yl]-1-methyl-1H-pyrazole-3-carboxamide trifluoroacetate] | IC50 [1, 5]: > 10000 nM |
